Assays:
[1] = system: gram negative bacteria; assay: Antibiotic sensitivities of BACTEC 12B/PANTA contaminants (MicroScan panels); format: cell-based; conditions: ceftazidime at 8 μg/ml; contaminants of CB-18 processed specimens on 12B/PANTA
From the text: Preliminary studies designed to assess the nature of contaminants breaking through the BACTEC 12B liquid media supplemented with PANTA used discarded respiratory specimens (n=277) from Quest Diagnostics—Baltimore. (NOTE: the BACTEC 12B liquid culture system is one of the standard methods in the art for culturing mycobacteria, and PANTA is an antimicobial supplement containing polymyxin B, azlocillin, nalidixic acid, trimethoprim, and amphotericin B: this culture system is referred to herein as “12B/PANTA” (Becton Dickinson, Cockeysville, Md.)) Specimens were collected and processed with CB-18 according to the procedure above. Approximately 400–500 μl of each sediment was planted on 12B/PANTA. All contaminants were identified by morphology and/or gram stain and then differentiated as either oxidase/catalase, positive or negative. Contaminants were then speciated, and antibiotic sensitivities determined, using MicroScan® panels (Dade, West Sacramento, Calif.).

[2] = system: M. tuberculosis isolates ATCC 27294, 571/573-BAL, 061-TBR, 52–96-BOL, and 57–96-BOL; assay: Antibiotic screen with additional antibiotics in the presence and absence of CB-18; format: cell-based, Mycobacterium tuberculosis; conditions: ceftazidime alone (absence of PANTA) at 16 μg/ml final
Method: The experimental design of FIG. 16 was also used to examine the breadth of the CB-18 effect with respect to other, non-β-lactam antibiotics. In these experiments antibiotics (Sigma, St. Louis, Mo.) were manufactured as stock solutions in water or buffer and then diluted with reconstitution fluid and added to the culture bottles prior to inoculation. Nystatin (100 μg/ml final), polymixin B (300 units final), erthromycin (4 μg/ml final), oleandomycin (2 μg/ml final), penicillin G (8 μg/ml final), nalidixic acid (30 μg/ml final), lincomycin (2 μg/ml final), ceftriaxone (32 μg/ml final), and ceftazidime (16 μg/ml final) (ceftazidime was manufactured in 10% sodium bicarbonate) were tested on ATCC 27294, 571/573-BAL, 061-TBR, 52–96-BOL, and 57–96-BOL. All experiments used R.F. and P-caz as controls, and all bottles wherein CB-18 was added used a final concentration of 17 μg/ml. FIG. 28 presents the results of the 571/573-BAL isolate with erythromycin and ceftriaxone. FIG. 29 presents the results of the 061-TBR isolate with polymyxin B, oleandomycin, lincomycin, naldixic acid, penicillin G, and ceftriaxone. FIG. 30 presents the results of the 57–96-BOL isolate with naldixic acid, penicillin G, ceftazidime and ceftriaxone.

For `CC(C)(O/N=C(\C(=O)N[C@@H]1C(=O)N2C(C(=O)[O-])=C(C[n+]3ccccc3)CS[C@H]12)c1csc(N)n1)C(=O)O` [ceftazidime], the “gram negative bacteria sensitive to ceftazidime” value [1] was 40 of the 48 and the “effect on isolates relative to other antibiotics tested” value [2] was “one of the least innocuous compounds”.

Reference: patent US7067500B2, “Betaines as adjuvants to susceptibility testing and antimicrobial therapy” (priority 1997, dated 2006)
